One test concerns cholangiocarcinoma. Briefly: Second line monotherapy trial in cholangiocarcinoma patients, CA19-9 marker. The test is classed as in vivo, human. The text has this:
CA19-9 is a marker employed in the management of cholangiocarcinoma.

In test [1] the test system is extra-hepatic cholangiocarcinoma. Briefly: Example 2: person, stage IV extra-hepatic cholangiocarcinoma, Varlitinib with cisplatin/capecitabine then monotherapy. Type of test: in vivo, human. The protocol: A person, stage IV, extra-hepatic cholangiocarcinoma, prior treatment: • Whipple • Radiotherapy • Gemzar/cisplatin for 6 months For the first 6 cycles, the patient received Varlitinib 400 mg BID continuously with cisplatin (80 mg/m^2 every 3 weeks) and capecitabine (1000 mg/m2 BID, 2 weeks on, 1 week off). […] In summary, the patient received varlitinib with chemo for 6 cycles and varlitinib monotherapy for another 4 cycles (3 weeks per cycle).

Test [2] deals with stage IV cholangiocarcinoma and metastatic lymphadenopathy. The test is described as follows: Example 5: person, stage IV cholangiocarcinoma and metastatic lymphadenopathy, Varlitinib with cisplatin/5-FU. Particulars: 300 mg BID Varlitinib with cisplatin/5-FU. The test is classed as in vivo, human. The protocol:
A person was diagnosed with stage IV cholangiocarcinoma and metastatic lymphadenopathy in January 2016. No prior surgery or treatment was given before initiating first line treatment of 300 mg BID Varlitinib combined with […]/5-FU, 28-day treatment cycle. Date of the first response 5 Mar. 2016, tumor C2 was reduced by 16%. Last response tumor C4 was reduced by 13% (17 May 2016).

The test system of test [3] is intrahepatic bile duct cholangiocarcinoma. The test is described as follows: Example 6: person, intrahepatic bile duct cholangiocarcinoma, Varlitinib with FOLFOX then monotherapy. The conditions noted are these: 9 cycles Varlitinib 400 mg reduced to 300 mg BID with FOLFOX, then 7 cycles monotherapy. The test is classed as in vivo, human. The protocol: A person diagnosed in 2013 with intrahepatic bile duct cholangiocarcinoma, had received surgery in the form of left hemihepatectomy in 15 Jul. 2013. Prior therapies were gemcitabine and cisplatin (in the period 14 Aug. 2013 to 8 Jan. 2014) and repeated between 13 May 2015 and 1 Jul. 2015. With this treatment the status was progressive disease. The patient was given 9 cycles of a combination of Varlitinib 400 mg reduced to 300 mg BID and FOLFOX. This was followed with 7 cycles of Varlitinib monotherapy.

The test system of test [4] is stage IV cholangiocarcinoma. Briefly: Example 7: person, stage IV cholangiocarcinoma, Varlitinib with cisplatin/5-FU then monotherapy. The test is classed as in vivo, human. The protocol: A person with stage IV cholangiocarcinoma newly diagnosed in 2014 received surgery (percutaneous […] cholangial drainage and transcatheter […] embolization), followed by adjuvant treatment of Varlitinib 400 mg BID combined with cisplatin s/5-FU 28-day cycle. After cycle 6 (14 Jul. 2015), only 400 mg BID Varlitinib was taken. Patient completed 10 cycles of monotherapy. At Cycle 11 Day 1, dose was reduced to 300 mg BID alternate days. […] 2015. Progressive disease observed in cycle 16 of monotherapy 12 Apr. 2016.

Another test has as its system gastric tumours. Particulars: 500 mg orally BID monotherapy 28 days, gastric tumours co-expressing EGFR and HER2 or HER2 amplified, cited from earlier work.

The source of these data is patent US20190117655A1, “Treatment of Biliary Duct Cancer” (ASLAN Pharmaceuticals PTE LTD, priority 2015, published 2019).

For the compound `C[C@@H]1COC(Nc2ccc3ncnc(Nc4ccc(OCc5nccs5)c(Cl)c4)c3c2)=N1` [Varlitinib, (R)—N4-[3-Chloro-4-(thiazol-2-ylmethoxy)-phenyl]-N6-(4-methyl-4,5,-dihydro-oxazol-2-yl)-quinazoline-4,6-diamine], in the test with cholangiocarcinoma (one patient, within one month of initiating Varlitinib), the “Reduction in CA19-9” value was 90%. Moreover, the CA19-9 levels entry in the test on cholangiocarcinoma (second line Varlitinib monotherapy, cholangiocarcinoma patients) is reported as “significant reduction”. Also, in test [1] (6 cycles with chemo then monotherapy), the “Duration of partial remission” value turned out to be 24 weeks. Also, the “Reduction in tumour size” value in test [1] (end of cycle 6, Varlitinib 400 mg BID with cisplatin 80 mg/m^2 and capecitabine 1000 mg/m2 BID) stood at 85.77%. Also, the “Reduction in tumour size” value in test [1] (end of cycle 8, varlitinib monotherapy after cycle 6) is reported as 87%. In test [1] (end of cycle 10, on varlitinib monotherapy), the “Disease status by RECIST” value is given as “disease progression”. In test [2], the Current disease status entry is “stable disease”. In addition, the “Tumor reduction, first response” value in test [2] (C2, first line) is reported as 16%. In addition, the “Tumor reduction, last response” value in test [2] (C4, first line) was determined as 13%. In addition, in test [3], the Patient status entry is on record as “partial response” and the “Reduction in tumor size” value was 50%. The “Cycle of treatment in which first response was observed” value in test [4] (Varlitinib 400 mg BID with cisplatin/5-FU, 28-day cycle) came out at 2 cycle. In addition, the “Cycle in which progressive disease was observed” value in test [4] (Varlitinib monotherapy after cycle 6) was 16 cycle. Also, in test [4] (varlitinib monotherapy after 6 cycles of varlitinib with cisplatin/5-FU), the Disease control entry was “remarkable disease control”. Besides, the “Signs of clinical activity: signalling pathways responsible for cell proliferation” value in the test on gastric tumours (biopsies before/after) is on record as “downregulation of signalling pathways responsible for cell proliferation”. Further, in the test with gastric tumours, the “Signs of clinical activity: cell survival and cell proliferation in gastric tumours” value was “reduction in cell survival and cell proliferation”.
